Assay results: patent publication US20190135793A1, “HETEROCYCLIC INHIBITORS OF KDM5 FOR THE TREATMENT OF DISEASE” (Board of Regents, The University of Texas System, priority 2017, published 2019)
Read-outs that look alike come from different tables or passages of the source.

Columns and labels:
[1] = molecular target: T1, KDM5B (Homo sapiens, UniProt Q9UGL1); assay: biochemical
T1 construct: Full length of KDM5B and KDM4C protein were purchased from Active Motif; purchased Active Motif 31832
Method in brief: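 KDM5B (0.5 nM final) was preincubated with compound for 15 min at room temperature, then reacted with biotinylated peptide (3 nM final) for 25 min at room temperature.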

[2] = molecular target: T2, KDM4C (Homo sapiens, UniProt Q9H3R0); assay: KDM4C AlphaScreen assay; format: biochemical; settings: AlphaScreen; full length KDM4C 0.2 nM; biotinylated H3K9Me3 peptide 3 nM; 30 minutes at room temperature
T2 construct: Full length of KDM5B and KDM4C protein were purchased from Active Motif; purchased Active Motif 31858
T2 sequence (Q9H3R0 1-1056): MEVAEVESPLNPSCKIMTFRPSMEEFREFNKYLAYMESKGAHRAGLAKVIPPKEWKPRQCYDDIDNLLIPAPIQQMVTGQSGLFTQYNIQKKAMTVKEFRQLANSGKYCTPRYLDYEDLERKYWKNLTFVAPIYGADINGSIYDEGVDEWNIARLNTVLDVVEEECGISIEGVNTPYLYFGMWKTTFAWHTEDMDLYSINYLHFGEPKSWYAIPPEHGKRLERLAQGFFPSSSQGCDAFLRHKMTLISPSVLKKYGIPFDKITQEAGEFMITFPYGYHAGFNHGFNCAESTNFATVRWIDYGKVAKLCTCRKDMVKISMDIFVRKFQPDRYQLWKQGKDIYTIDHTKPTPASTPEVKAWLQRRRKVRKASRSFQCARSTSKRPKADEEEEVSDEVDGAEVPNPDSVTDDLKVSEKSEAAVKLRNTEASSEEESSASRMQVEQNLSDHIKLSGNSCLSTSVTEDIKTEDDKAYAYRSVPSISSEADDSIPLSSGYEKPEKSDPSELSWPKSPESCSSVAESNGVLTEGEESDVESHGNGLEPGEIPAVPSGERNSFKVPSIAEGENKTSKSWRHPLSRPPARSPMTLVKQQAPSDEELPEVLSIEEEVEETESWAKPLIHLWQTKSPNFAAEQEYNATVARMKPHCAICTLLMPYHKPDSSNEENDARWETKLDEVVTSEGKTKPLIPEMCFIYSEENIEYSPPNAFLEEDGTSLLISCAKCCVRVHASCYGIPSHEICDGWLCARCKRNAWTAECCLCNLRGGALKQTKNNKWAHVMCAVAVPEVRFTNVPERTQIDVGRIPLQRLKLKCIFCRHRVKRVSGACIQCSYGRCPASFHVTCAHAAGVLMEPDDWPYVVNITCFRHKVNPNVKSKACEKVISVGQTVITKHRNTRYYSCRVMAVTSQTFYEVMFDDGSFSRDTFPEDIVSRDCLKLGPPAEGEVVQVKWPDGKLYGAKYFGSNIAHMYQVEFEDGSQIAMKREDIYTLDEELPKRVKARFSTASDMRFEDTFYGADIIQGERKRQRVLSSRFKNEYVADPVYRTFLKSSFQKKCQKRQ
Method in brief: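 Full-length KDM4C (0.2 nM final) was preincubated 15 min at RT with compound in HEPES pH 7.4 with Tween-20, BSA and TCEP. The reaction ran 30 min at RT after adding biotinylated peptide (3 nM final) in buffer with Fe(II), α-ketoglutarate and ascorbate. EDTA-containing AlphaScreen beads stopped it; IC50 was curve-fitted.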

[3] = AlphaScreen, full length KDM5B 0.5 nM, biotinylated H3K4Me3 peptide 3 nM, 25 minutes at room temperature, read-out: KDM5B (IC50)

T1 sequence (Q9UGL1 whole entry): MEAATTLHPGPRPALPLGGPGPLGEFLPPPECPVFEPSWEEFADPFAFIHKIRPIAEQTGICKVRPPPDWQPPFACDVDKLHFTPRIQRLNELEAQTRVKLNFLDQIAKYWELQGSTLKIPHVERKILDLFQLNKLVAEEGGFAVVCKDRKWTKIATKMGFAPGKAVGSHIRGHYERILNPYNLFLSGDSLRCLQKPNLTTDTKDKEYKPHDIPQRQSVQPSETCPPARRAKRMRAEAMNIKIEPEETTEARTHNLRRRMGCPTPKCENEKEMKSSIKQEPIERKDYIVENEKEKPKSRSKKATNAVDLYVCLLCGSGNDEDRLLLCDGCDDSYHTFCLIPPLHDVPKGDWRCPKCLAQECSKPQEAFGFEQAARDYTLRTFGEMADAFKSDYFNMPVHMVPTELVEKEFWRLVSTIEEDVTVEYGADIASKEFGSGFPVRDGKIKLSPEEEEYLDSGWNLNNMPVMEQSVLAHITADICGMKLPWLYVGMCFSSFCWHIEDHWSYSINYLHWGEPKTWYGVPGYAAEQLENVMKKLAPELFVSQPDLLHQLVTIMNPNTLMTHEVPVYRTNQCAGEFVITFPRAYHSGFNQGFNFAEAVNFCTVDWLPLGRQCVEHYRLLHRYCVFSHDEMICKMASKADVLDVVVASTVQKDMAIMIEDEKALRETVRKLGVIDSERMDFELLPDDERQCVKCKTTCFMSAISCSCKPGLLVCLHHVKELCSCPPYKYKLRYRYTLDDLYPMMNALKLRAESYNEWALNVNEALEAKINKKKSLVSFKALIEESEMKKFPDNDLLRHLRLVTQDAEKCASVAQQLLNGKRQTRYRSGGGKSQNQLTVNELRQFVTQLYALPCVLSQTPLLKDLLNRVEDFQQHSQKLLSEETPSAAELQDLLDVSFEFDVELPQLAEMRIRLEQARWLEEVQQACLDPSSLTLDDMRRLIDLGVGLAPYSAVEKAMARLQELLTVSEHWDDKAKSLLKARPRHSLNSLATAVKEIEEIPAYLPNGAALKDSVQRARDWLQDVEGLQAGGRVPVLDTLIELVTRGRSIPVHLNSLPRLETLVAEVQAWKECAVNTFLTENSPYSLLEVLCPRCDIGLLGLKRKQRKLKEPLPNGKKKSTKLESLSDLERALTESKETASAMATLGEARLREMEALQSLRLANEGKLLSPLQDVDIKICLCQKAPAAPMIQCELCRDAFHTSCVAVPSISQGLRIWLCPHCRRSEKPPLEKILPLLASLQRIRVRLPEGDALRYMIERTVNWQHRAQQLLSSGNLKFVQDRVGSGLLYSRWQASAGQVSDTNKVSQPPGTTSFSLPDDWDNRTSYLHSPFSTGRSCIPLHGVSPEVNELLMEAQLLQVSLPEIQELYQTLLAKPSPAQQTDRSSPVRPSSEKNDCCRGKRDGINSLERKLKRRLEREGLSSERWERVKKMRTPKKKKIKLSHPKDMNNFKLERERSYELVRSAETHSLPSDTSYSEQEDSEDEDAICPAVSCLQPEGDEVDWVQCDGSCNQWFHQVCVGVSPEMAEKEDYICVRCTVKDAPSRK

| SMILES | IC50 [1] [nM] | IC50 [2] [nM] | IC50 [1, 3] [nM] |
| --- | --- | --- | --- |
| Cc1noc(C)c1-c1nc(-n2ccnc2)nc(O)c1C(C)C [Example 84, 6-(Dimethyl-1,2-oxazol-4-yl)-2-(1H-imidazol-1-yl)-5-(propan-2-yl)pyrimidin-4-ol] | 190 | 10700 | – |
| CC(C)c1c(O)nc(-n2ccnc2)nc1-c1ccc(C(=O)NCC(=O)O)cc1 [Example 85, 2-({4-[6-Hydroxy-2-(1H-imidazol-1-yl)-5-(propan-2-yl)pyrimidin-4-yl]phenyl}-formamido)acetic acid] | 240 | 9710 | – |
| CC(C)Cc1ccc(-c2nc(-n3ccnc3)nc(O)c2C(C)C)cc1 [Example 86, 2-(1H-Imidazol-1-yl)-6-[4-(2-methylpropyl)phenyl]-5-(propan-2-yl)pyrimidin-4-ol] | – | 10000 | 1130 |
| CC(C)c1c(O)nc(-n2ccnc2-c2ncccn2)nc1Cl [Example 88, 6-Chloro-5-(propan-2-yl)-2-[2-(pyrimidin-2-yl)-1H-imidazol-1-yl]pyrimidin-4-ol] | – | 8260 | 563 |
| CC(C)c1c(O)nc(-n2ccnc2-c2ccccn2)nc1-c1cccc(CNS(C)(=O)=O)c1 [Example 89, N-({3-[6-Hydroxy-5-(propan-2-yl)-2-[2-(pyridin-2-yl)-1H-imidazol-1-yl]pyrimidin-4-yl]phenyl}methyl)methane-sulfonamide] | – | 20000 | 266 |
| CC(C)c1c(O)nc(-n2ccnc2)nc1-c1cnn(CC(=O)NCCN2CCOCC2)c1 [Example 100, 2-{4-[6-Hydroxy-2-(1H-imidazol-1-yl)-5-(propan-2-yl)pyrimidin-4-yl]-1H-pyrazol-1-yl}-N-[2-(morpholin-4-yl)ethyl]-acetamide] | 12 | 1260 | – |
| CC(C)c1c(O)nc(-n2ccnc2)nc1-c1cnn(CC(=O)N2CCC(C#N)C2)c1 (stereo not drawn) [Example 101, 1-(2-{4-[6-Hydroxy-2-(1H-imidazol-1-yl)-5-(propan-2-yl)pyrimidin-4-yl]-1H-pyrazol-1-yl}acetyl)-pyrrolidine-3-carbonitrile] | 12 | 881 | – |
| CC(C)c1c(O)nc(-n2ccnc2)nc1-c1cnn(CC(=O)NCCN(C)c2ccccc2)c1 [Example 102, 2-{4-[6-Hydroxy-2-(1H-imidazol-1-yl)-5-(propan-2-yl)pyrimidin-4-yl]-1H-pyrazol-1-yl}-N-{2-[methyl-(phenyl)amino]ethyl}-acetamide] | – | 1400 | 14 |
| CC(C)c1c(O)nc(-n2ccnc2)nc1-c1cnn(CC(=O)N2CCCC(C#N)C2)c1 (stereo not drawn) [Example 103, 1-(2-{4-[6-Hydroxy-2-(1H-imidazol-1-yl)-5-(propan-2-yl)pyrimidin-4-yl]-1H-pyrazol-1-yl}acetyl)-piperidine-3-carbonitrile] | 15 | 909 | – |
| CC(C)c1c(O)nc(-n2ccnc2)nc1-c1cnn(CC(=O)NCCO)c1 [Example 104, 2-{4-[6-Hydroxy-2-(1H-imidazol-1-yl)-5-(propan-2-yl)pyrimidin-4-yl]-1H-pyrazol-1-yl}-N-(2-hydroxy-ethyl)acetamide] | 15 | 1380 | – |
| CC(C)c1c(O)nc(-n2ccnc2)nc1-c1cnn(CC(=O)NCCc2ccccn2)c1 [Example 105, 2-{4-[6-Hydroxy-2-(1H-imidazol-1-yl)-5-(propan-2-yl)pyrimidin-4-yl]-1H-pyrazol-1-yl}-N-[2-(pyridin-2-yl)ethyl]acetamide] | 17 | 1080 | – |
| CC(C)c1c(O)nc(-n2ccnc2)nc1-c1cnn(CC(=O)NCCS(C)(=O)=O)c1 [Example 107, 2-{4-[6-Hydroxy-2-(1H-imidazol-1-yl)-5-(propan-2-yl)pyrimidin-4-yl]-1H-pyrazol-1-yl}-N-(2-methane-sulfonylethyl)acetamide] | – | 1220 | 19 |
| CC(C)c1c(O)nc(-n2ccnc2)nc1-c1cnn(CC(=O)NCCN2CCCC2=O)c1 [Example 109, 2-{4-[6-Hydroxy-2-(1H-imidazol-1-yl)-5-(propan-2-yl)pyrimidin-4-yl]-1H-pyrazol-1-yl}-N-[2-(2-oxo-pyrrolidin-1-yl)ethyl]-acetamide] | – | 1540 | 20 |

More lines, now with the values ahead:

| IC50 [1] [nM] | IC50 [2] [nM] | IC50 [1, 3] [nM] | SMILES |
| --- | --- | --- | --- |
| – | 410 | 4 | CC(C)c1c(O)nc(-n2ccnc2)nc1-c1cnn(CC(=O)NCCCN(C)C)c1 [Example 90, N-[3-(Dimethylamino)-propyl]-2-{4-[6-hydroxy-2-(1H-imidazol-1-yl)-5-(propan-2-yl)pyrimidin-4-yl]-1H-pyrazol-1-yl}acetamide] |
| 5 | 634 | – | CC(C)c1c(O)nc(-n2ccnc2)nc1-c1cnn(CC(=O)NCCN(C)C)c1 [Example 91, N-[2-(Dimethylamino)ethyl]-2-{4-[6-hydroxy-2-(1H-imidazol-1-yl)-5-(propan-2-yl)pyrimidin-4-yl]-1H-pyrazol-1-yl}acetamide] |
| 6 | 525 | – | CC(C)c1c(O)nc(-n2ccnc2)nc1-c1cnn(CC(=O)NCCN2CCC(O)CC2)c1 [Example 92, 2-{4-[6-Hydroxy-2-(1H-imidazol-1-yl)-5-(propan-2-yl)pyrimidin-4-yl]-1H-pyrazol-1-yl}-N-[2-(4-hydroxypiperidin-1-yl)ethyl]-acetamide] |
| 6 | 477 | – | CC(C)c1c(O)nc(-n2ccnc2)nc1-c1cnn(CC(=O)NCCCCN(C)C)c1 [Example 93, N-[4-(Dimethylamino)butyl]-2-{4-[6-hydroxy-2-(1H-imidazol-1-yl)-5-(propan-2-yl)pyrimidin-4-yl]-1H-pyrazol-1-yl}acetamide] |
| – | 340 | 6 | CC(C)c1c(O)nc(-n2ccnc2)nc1-c1cnn(CC(=O)NCCN)c1 [Example 94, N-(2-Aminoethyl)-2-{4-[6-hydroxy-2-(1H-imidazol-1-yl)-5-(propan-2-yl)pyrimidin-4-yl]-1H-pyrazol-1-yl}-acetamide] |
| 6 | 278 | – | CNCCN(C)C(=O)Cn1cc(-c2nc(-n3ccnc3)nc(O)c2C(C)C)cn1 [Example 95, 2-{4-[6-Hydroxy-2-(1H-imidazol-1-yl)-5-(propan-2-yl)pyrimidin-4-yl]-1H-pyrazol-1-yl}-N-methyl-N-[2-(methylamino)ethyl]-acetamide] |
| 7 | 779 | – | CC(C)c1c(O)nc(-n2ccnc2)nc1-c1cnn(CC(=O)NCCN2CCC(F)(F)CC2)c1 [Example 96, N-[2-(4,4-Difluoropiperidin-1-yl)ethyl]-2-{4-[6-hydroxy-2-(1H-Imidazol-1-yl)-5-(propan-2-yl)pyrimidin-4-yl]-1H-pyrazol-1-yl}acetamide] |
| 7 | 613 | – | CC(C)c1c(O)nc(-n2ccnc2)nc1-c1cnn(CC(=O)NCC2CN(C)CCO2)c1 (stereo not drawn) [Example 97, 2-{4-[6-Hydroxy-2-(1H-imidazol-1-yl)-5-(propan-2-yl)pyrimidin-4-yl]-1H-pyrazol-1-yl}-N-[(4-methyl-morpholin-2-yl)methyl]-acetamide] |
| 8 | 505 | – | CC(C)c1c(O)nc(-n2ccnc2)nc1-c1cnn(CC(=O)N2CCCC(N)C2)c1 (stereo not drawn) [Example 98, 1-(3-Aminopiperidin-1-yl)-2-{4-[6-hydroxy-2-(1H-imidazol-1-yl)-5-(propan-2-yl)pyrimidin-4-yl]-1H-pyrazol-1-yl}ethan-1-one] |
| – | 455 | 10 | CC(C)c1c(O)nc(-n2ccnc2)nc1-c1cnn(CC(=O)N2CCN(C)CC2)c1 [Example 99, 2-{4-[6-Hydroxy-2-(1H-imidazol-1-yl)-5-(propan-2-yl)pyrimidin-4-yl]-1H-pyrazol-1-yl}-1-(4-methyl-piperazin-1-yl)ethan-1-one] |
| 18 | 869 | – | CC(C)c1c(O)nc(-n2ccnc2)nc1-c1cnn(CC(=O)NCc2ccn(C)n2)c1 [Example 106, 2-{4-[6-Hydroxy-2-(1H-imidazol-1-yl)-5-(propan-2-yl)pyrimidin-4-yl]-1H-pyrazol-1-yl}-N-[(1-methyl-1H-pyrazol-3-yl)methyl]-acetamide] |
